Measured values taken from patent publication US20230017045A1, “PYRIDINE AND PYRIMIDINE CARBOXYLATE HERBICIDES AND METHODS OF USE THEREOF” (Dow AgroSciences LLC, priority 2017, published 2023).
Where two headings read alike, the source gives them in different places.

Test system: test plant species
Assay: Post-emergent herbicidal activity test (greenhouse, foliar spray, visual growth reduction)
Assay type: in vivo
Conditions: post-emergence, 336 h, 140 g ai/ha
Description: Post-emergent Test: Seeds or nutlets of the desired test plant species were planted in Sun Gro Metro-Mix® 360 planting mixture, which typically has a pH of 6.0 to 6.8 and an organic matter content of about 30 percent, in plastic pots with a surface area of 64 square centimeters. In some aspects, to ensure good germination and healthy plants, a fungicide treatment and/or other chemical or physical treatment was applied. The plants were grown for 7-21 d in a greenhouse with an approximate 15 h photoperiod which was maintained at 23-29° C. during the day and 22-28° C. during the night. Nutrients and water were added on a regular basis and supplemental lighting was provided with overhead metal halide 1000-Watt lamps as necessary. Plants were used for testing when they reached the first or second true leaf stage. A weighed amount, determined by the highest rate to be tested, of each test compound was placed in a 25 mL glass vial and was dissolved in 4 mL of a 97:3 v/v mixture of acetone and DMSO to obtain concentrated stock solutions. […] The concentrated stock solutions obtained were diluted with 20 mL of an aqueous mixture containing acetone, water, isopropyl alcohol, DMSO, […] crop oil concentrate, and X-77 surfactant in a 48.5:39:10:1.5:1.0:0.02 v/v ratio to obtain spray solutions containing the application rate. Compound requirements are based upon a 12 mL application volume at a rate of 187 liters per hectare (L/ha). Formulated compounds were applied to the plant material with an overhead Mandel track sprayer equipped with […] nozzles calibrated to deliver 187 L/ha over an application area of 0.64 square meters at a spray height of 18 inches (43 cm) above the average plant canopy height. Control plants were sprayed in the same manner with the solvent blank. The treated plants and control plants were placed in a greenhouse as described above and watered by subirrigation to prevent wash-off of the test compounds. After 14 d, the condition of the test plants as compared with that of the nontreated and control plants was determined visually and scored on a scale of 0 to 100 percent where 0 corresponds to no injury and 100 corresponds to complete control. In the reporting of the results, Table A: Percent Growth Reduction Conversion Table was used.

[1] = ALOMY: blackgrass (Alopecurus myosuroides), 14 days after application, read-out: Visual Growth Reduction (%) 14 Days After Application, ALOMY
[2] = AMARE: redroot pigweed (Amaranthus retroflexus), 14 days after application, read-out: Visual Growth Reduction (%) 14 Days After Application, AMARE
[3] = AVEFA: wild oat (Avena fatua), 14 days after application, read-out: Visual Growth Reduction (%) 14 Days After Application, AVEFA
[4] = CHEAL: lambsquarters (Chenopodium album), 14 days after application, read-out: Visual Growth Reduction (%) 14 Days After Application, CHEAL
[5] = CIRAR: canada thistle (Cirsium arvense), 14 days after application, read-out: Visual Growth Reduction (%) 14 Days After Application, CIRAR
[6] = CYPES: yellow nutsedge (Cyperus esculentus), 14 days after application, read-out: Visual Growth Reduction (%) 14 Days After Application, CYPES
[7] = DIGSA: crabgrass (Digitaria sanguinalis), 14 days after application, read-out: Visual Growth Reduction (%) 14 Days After Application, DIGSA
[8] = ECHCG: barnyardgrass (Echinochloa crus-galli), 14 days after application, read-out: Visual Growth Reduction (%) 14 Days After Application, ECHCG
[9] = IPOHE: ivy-leaf morning glory (Ipomoea hederacea), 14 days after application, read-out: Visual Growth Reduction (%) 14 Days After Application, IPOHE
[10] = KCHSC: kochia (Bassia scoparia), 14 days after application, read-out: Visual Growth Reduction (%) 14 Days After Application, KCHSC
[11] = ORYSA: rice (Oryza sativa), 14 days after application, read-out: Visual Growth Reduction (%) 14 Days After Application, ORYSA
[12] = SETFA: giant foxtail (Setaria faberi), 14 days after application, read-out: Visual Growth Reduction (%) 14 Days After Application, SETFA
[13] = SORVU: grain sorghum (Sorghum vulgare), 14 days after application, read-out: Visual Growth Reduction (%) 14 Days After Application, SORVU
[14] = STEME: common chickweed (Stellaria media), 14 days after application, read-out: Visual Growth Reduction (%) 14 Days After Application, STEME
[15] = TRZAS: wheat, spring (Triticum aestivum), 14 days after application, read-out: Visual Growth Reduction (%) 14 Days After Application, TRZAS
[16] = blackgrass (Alopecurus myosuroides), 14 Days After Application, read-out: Visual Growth Reduction (%) ALOMY
[17] = crabgrass (Digitaria sanguinalis), 14 Days After Application, read-out: Visual Growth Reduction (%) DIGSA
[18] = lambsquarters (Chenopodium album), 14 Days After Application, read-out: Visual Growth Reduction (%) CHEAL
[19] = redroot pigweed (Amaranthus retroflexus), 14 Days After Application, read-out: Visual Growth Reduction (%) AMARE
[20] = wild oat (Avena fatua), 14 Days After Application, read-out: Visual Growth Reduction (%) AVEFA
[21] = yellow nutsedge (Cyperus esculentus), 14 Days After Application, read-out: Visual Growth Reduction (%) CYPES
[22] = canada thistle (Cirsium arvense), 14 Days After Application, read-out: Visual Growth Reduction (%) CIRAR

| SMILES | pest or weed control at 140 g/ha [1] [%] | pest or weed control at 140 g/ha [2] [%] | pest or weed control at 140 g/ha [3] [%] | pest or weed control at 140 g/ha [4] [%] | pest or weed control at 140 g/ha [5] [%] | pest or weed control at 140 g/ha [6] [%] | pest or weed control at 140 g/ha [7] [%] | pest or weed control at 140 g/ha [8] [%] | pest or weed control at 140 g/ha [9] [%] | pest or weed control at 140 g/ha [10] [%] | pest or weed control at 140 g/ha [11] [%] | pest or weed control at 140 g/ha [12] [%] | pest or weed control at 140 g/ha [13] [%] | pest or weed control at 140 g/ha [14] [%] | pest or weed control at 140 g/ha [15] [%] | pest or weed control at 140 g/ha [16] [%] | pest or weed control at 140 g/ha [17] [%] | pest or weed control at 140 g/ha [18] [%] | pest or weed control at 140 g/ha [19] [%] | pest or weed control at 140 g/ha [20] [%] | further results |
| --- | --- | --- | --- | --- | --- | --- | --- | --- | --- | --- | --- | --- | --- | --- | --- | --- | --- | --- | --- | --- | --- |
| COC(=O)c1nc(-c2cc(Br)c(C(F)(F)F)cc2Cl)c(F)cc1Cl [F152, Methyl 6-(5-bromo-2-chloro-4-(trifluoromethyl)phenyl)-3-chloro-5-fluoropicolinate] | 0 to 29 | 95 to 100 | 0 to 29 | 95 to 100 | 45 to 59 | 0 to 29 | 60 to 74 | 0 to 29 | 95 to 100 | 85 to 94 | 0 to 29 | 0 to 29 | 95 to 100 | 0 to 29 | 0 to 29 |  |  |  |  |  |  |
| COC(=O)c1nc(-c2ccc(OC(F)(F)F)cc2Cl)ccc1Cl [F58, Methyl 3-chloro-6-(2-chloro-4-(trifluoromethoxy)phenyl)picolinate] | 30 to 44 | 95 to 100 | 45 to 59 | 60 to 74 | 95 to 100 | 0 to 29 | 85 to 94 | 0 to 29 | 95 to 100 | 30 to 44 | 0 to 29 | 75 to 84 | 85 to 94 |  |  |  |  |  |  |  |  |
| COc1cc(-c2nc(C(=O)O)c(Cl)cc2F)c(Cl)cc1C(F)(F)F [F337, 3-Chloro-6-(2-chloro-5-methoxy-4-(trifluoromethyl)phenyl)-5-fluoropicolinic acid] |  |  |  |  |  |  |  | 60 to 74 | 95 to 100 | 85 to 94 | 0 to 29 | 85 to 94 | 75 to 84 | 0 to 29 | 30 to 44 | 0 to 29 | 45 to 59 | 75 to 84 | 30 to 44 | 0 to 29 | pest or weed control at 140 g/ha [21]: 0 to 29% |
| COC(=O)c1nc(-c2ccc(C3CC3)cc2Cl)ccc1Cl [F15, methyl 3-chloro-6-(2-chloro-4-cyclopropylphenyl)picolinate] | 0 to 29 | 30 to 44 | 0 to 29 | 45 to 59 | 0 to 29 | 30 to 44 | 0 to 29 |  |  |  |  |  |  |  |  |  |  |  |  |  | pest or weed control at 140 g/ha (barnyardgrass (Echinochloa crus-galli), 14 Days After Application, read-out: Visual Growth Reduction (%) ECHCG): 0 to 29%; pest or weed control at 140 g/ha (common chickweed (Stellaria media), 14 Days After Application, read-out: Visual Growth Reduction (%) STEME): 0 to 29%; pest or weed control at 140 g/ha (giant foxtail (Setaria faberi), 14 Days After Application, read-out: Visual Growth Reduction (%) SETFA): 0 to 29%; pest or weed control at 140 g/ha (ivy-leaf morning glory (Ipomoea hederacea), 14 Days After Application, read-out: Visual Growth Reduction (%) IPOHE): 95 to 100%; pest or weed control at 140 g/ha (johnsongrass (Sorghum vulgare), 14 Days After Application, read-out: Visual Growth Reduction (%) SORVU): 0 to 29%; pest or weed control at 140 g/ha (kochia (Bassia scoparia), 14 Days After Application, read-out: Visual Growth Reduction (%) KCHSC): 0 to 29%; pest or weed control at 140 g/ha (rice (Oryza sativa), 14 Days After Application, read-out: Visual Growth Reduction (%) ORYSA): 0 to 29%; pest or weed control at 140 g/ha (wheat, spring (Triticum aestivum), 14 Days After Application, read-out: Visual Growth Reduction (%) TRZAS): 0 to 29% |
| COC(=O)c1nc(-c2c(Cl)cccc2OC)c(F)cc1Cl [F301, Methyl 3-chloro-6-(2-chloro-6-methoxyphenyl)-5-fluoropicolinate] |  |  |  |  |  |  |  | 0 to 29 | 0 to 29 | 0 to 29 | 0 to 29 | 0 to 29 | 0 to 29 | 0 to 29 | 0 to 29 | 0 to 29 | 0 to 29 | 0 to 29 | 0 to 29 | 0 to 29 | pest or weed control at 140 g/ha [22]: 0 to 29%; pest or weed control at 140 g/ha [21]: 0 to 29% |
| O=C(OCc1ccccn1)c1nc(-c2ccc(C(F)(F)F)cc2Cl)ccc1Cl [F54, Pyridin-2-ylmethyl 3-chloro-6-(2-chloro-4-(trifluoromethyl)phenyl)picolinate] | 0 to 29 | 0 to 29 | 0 to 29 | 0 to 29 | 0 to 29 | 0 to 29 | 0 to 29 | 75 to 84 | 95 to 100 | 95 to 100 | 0 to 29 | 85 to 94 | 95 to 100 | 0 to 29 | 85 to 94 |  |  |  |  |  |  |
| C=Cc1cc(-c2nc(C(=O)OC)c(Cl)cc2F)c(Cl)cc1C(F)(F)F [F303, Methyl 3-chloro-6-(2-chloro-4-(trifluoromethyl)-5-vinylphenyl)-5-fluoropicolinate] |  |  |  |  |  |  |  | 0 to 29 | 95 to 100 | 0 to 29 | 0 to 29 | 0 to 29 | 0 to 29 | 0 to 29 | 0 to 29 | 0 to 29 | 0 to 29 | 75 to 84 | 0 to 29 | 0 to 29 | pest or weed control at 140 g/ha [22]: 0 to 29%; pest or weed control at 140 g/ha [21]: 0 to 29% |
